Values after ≈ are worked out from the molar mass of the structure shown.
What was measured:
SMMC-7721 = assay: Cytotoxicity again human SMMC7721 cells by MTT method; type: cell-based
Staphylococcus aureus [1] = assay: Antibacterial activity against Staphylococcus aureus ATCC 25923 by XTT dye based assay; type: functional
Staphylococcus aureus [2] = assay: Antibacterial activity against Staphylococcus aureus ATCC 29213 by XTT dye based assay; type: functional
Escherichia coli = assay: microbe, parasite or virus in culture; type: functional; conditions: ATCC 25922
Description: Antibacterial activity against Escherichia coli ATCC 25922 by XTT dye based assay

Enterococcus faecium = assay: Antibacterial activity against Enterococcus faecium ATCC 35667 by XTT dye based assay; type: functional
Enterococcus faecalis = assay: microbe, parasite or virus in culture; type: functional; conditions: ATCC 51299
Description: Antibacterial activity against Enterococcus faecalis ATCC 51299 by XTT dye based assay

Staphylococcus aureus [3] = assay: Antibacterial activity against Staphylococcus aureus ATCC 33591 by XTT dye based assay; type: functional
Staphylococcus aureus [4] = assay: Antibacterial activity against Staphylococcus aureus ATCC 43300 by XTT dye based assay; type: functional

MIC (Staphylococcus aureus [1]) [µg/mL]	MIC (Staphylococcus aureus [2]) [µg/mL]	MIC (Escherichia coli) [µg/mL]	MIC (Enterococcus faecium) [µg/mL]	MIC (Enterococcus faecalis) [µg/mL]	MIC (Staphylococcus aureus [3]) [µg/mL]	MIC (Staphylococcus aureus [4]) [µg/mL]	Structure (SMILES)	IC50 (SMMC-7721) [µM]
–	–	–	–	–	–	–	Cc1cccc(O)c1C1=CC2=CC(=O)[C@](C)(O)C(=O)C2=CO1	> 10
> 50	> 50	> 50	> 50	> 50	> 50	> 50	CCCCCC[C@H](C)/C=C(\C)C(=O)O[C@@]1(C)C(=O)c2c(cc(O)c3c(C)cccc23)[C@](C)(O)C1=O	–
–	–	–	–	–	–	–	CCCCCC[C@H](C)/C=C(\C)C(=O)O[C@@]1(C)C(=O)C2=COC(C3=C(C)CC(O)CC3=O)=CC2=C(Cl)C1=O (some centres not stated)	> 10
–	–	–	–	–	–	–	CCCCCC[C@H](C)/C=C(\C)C(=O)O[C@@]1(C)C(=O)C2=COC(c3c(C)cccc3O)=CC2=C(Cl)C1=O	> 10
> 50	12.5 (≈ 24.2 µM)	> 50	25 (≈ 48.4 µM)	12.5 (≈ 24.2 µM)	3.13 (≈ 6.06 µM)	12.5 (≈ 24.2 µM)	CCCCCC[C@H](C)/C=C(\C)C(=O)O[C@@]1(C)C(=O)c2c(cc(O)c3c2C[C@H](O)C[C@]3(C)O)[C@](C)(O)C1=O	–
12.5 (≈ 21.7 µM)	25 (≈ 43.4 µM)	> 50	25 (≈ 43.4 µM)	25 (≈ 43.4 µM)	12.5 (≈ 21.7 µM)	50 (≈ 86.9 µM)	CCCCCC[C@H](C)/C=C(\C)C(=O)O[C@]1(C)C(=O)C2=COC(C3=C(C)C[C@@H](O)CC3=O)=CC2=C(Br)C1=O	> 10
–	–	–	–	–	–	–	CCCCCC[C@H](C)/C=C(\C)C(=O)O[C@@]1(C)C(=O)C=C2C=C(c3c(C)cccc3O)OC=C2C1=O	> 10
–	–	–	–	–	–	–	Cc1cccc(O)c1C1=CC2=C(Cl)C(=O)[C@@](C)(O)C(=O)C2=CO1	> 10
6.25 (≈ 11.2 µM)	12.5 (≈ 22.4 µM)	> 50	12.5 (≈ 22.4 µM)	3.13 (≈ 5.61 µM)	3.13 (≈ 5.61 µM)	12.5 (≈ 22.4 µM)	CCCCCC[C@H](C)/C=C(\C)C(=O)O[C@]1(C)C(=O)C2=COC(c3c(C)cccc3O)=CC2=C(Br)C1=O	> 10
> 50	> 50	> 50	> 50	> 50	25 (≈ 126 µM)	25 (≈ 126 µM)	CCCCCC[C@H](C)/C=C(\C)C(=O)O	–
–	–	–	–	–	–	–	CCCCCC[C@H](C)/C=C(\C)C(=O)O[C@@]1(C)C(=O)C=C2C=C(C3=C(C)C[C@@H](O)CC3=O)OC=C2C1=O	> 10

Structure (SMILES)	MIC (Staphylococcus aureus [1]) [µg/mL]	MIC (Staphylococcus aureus [2]) [µg/mL]	MIC (Escherichia coli) [µg/mL]	MIC (Enterococcus faecium) [µg/mL]	MIC (Enterococcus faecalis) [µg/mL]	MIC (Staphylococcus aureus [3]) [µg/mL]	MIC (Staphylococcus aureus [4]) [µg/mL]	IC50 (SMMC-7721) [µM]
CN[C@H](CC(C)C)C(=O)N[C@H]1C(=O)N[C@@H](CC(N)=O)C(=O)N[C@H]2C(=O)N[C@H]3C(=O)N[C@H](C(=O)N[C@H](C(=O)O)c4cc(O)cc(O)c4-c4cc3ccc4O)[C@H](O)c3ccc(c(Cl)c3)Oc3cc2cc(c3O[C@@H]2O[C@H](CO)[C@@H](O)[C@H](O)[C@H]2O[C@H]2C[C@](C)(N)[C@H](O)[C@H](C)O2)Oc2ccc(cc2Cl)[C@H]1O.Cl [VANCOMYCIN HYDROCHLORIDE]	0.78	0.78	> 50	0.78	> 50	1.56	0.78	–
Cc1onc(-c2ccccc2)c1C(=O)N[C@@H]1C(=O)N2[C@@H]1SC(C)(C)[C@@H]2C(=O)[O-].[Na+]	0.2	0.39	> 50	> 50	> 50	> 50	> 50	–

From ChEMBL document CHEMBL4330155, “NaBr-Induced Production of Brominated Azaphilones and Related Tricyclic Polyketides by the Marine-Derived Fungus Penicillium janthinellum HK1-6” (J Nat Prod, 2019)
